Test system: Raji
Assay: Cytotoxicity against human Raji cells expressing human LAG3 assessed as reduction in cell viability incubated for 1 hrs by trypan blue staining based analysis
Assay type: toxicity

## O=C(O)c1cccc(C(=O)NC2CCN(c3ccc(C(F)(F)F)cn3)CC2)c1
  Activity: Non-Toxic

## Cc1nc(C(F)(F)F)nc(-c2cc(NCCN(C)C)nc3[nH]ccc23)c1C
  Activity: Non-Toxic

Reference: ChEMBL document CHEMBL6127143, “From Virtual Screens to Cellular Target Engagement: New Small Molecule Ligands for the Immune Checkpoint LAG-3” (ACS Med Chem Lett, 2024)
